Patent US20090306144A1, “PYRIDINE DERIVATIVES OF ALKYL OXINDOLES AS 5-HT7 RECEPTOR ACTIVE AGENTS” (priority 2004, published 2009)
Where a name gives a salt, the structure may show the parent alone. Values belong to the compound of their own block, whether it stands above or below them.

Columns and labels:
[1] = target: T1, 5-HT7 receptor (Homo sapiens, UniProt P34969); assay: 5-HT7 receptor binding (3H-LSD, CHO cell culture); details: ligand 3H-LSD, non-specific binding clozapine (25 μM), read-out: Inhibition of 5-HT7 receptor binding, IC50
T1 construct: expressed in transfected cells; host or cells: CHO cell culture
T1 sequence (P34969 whole entry): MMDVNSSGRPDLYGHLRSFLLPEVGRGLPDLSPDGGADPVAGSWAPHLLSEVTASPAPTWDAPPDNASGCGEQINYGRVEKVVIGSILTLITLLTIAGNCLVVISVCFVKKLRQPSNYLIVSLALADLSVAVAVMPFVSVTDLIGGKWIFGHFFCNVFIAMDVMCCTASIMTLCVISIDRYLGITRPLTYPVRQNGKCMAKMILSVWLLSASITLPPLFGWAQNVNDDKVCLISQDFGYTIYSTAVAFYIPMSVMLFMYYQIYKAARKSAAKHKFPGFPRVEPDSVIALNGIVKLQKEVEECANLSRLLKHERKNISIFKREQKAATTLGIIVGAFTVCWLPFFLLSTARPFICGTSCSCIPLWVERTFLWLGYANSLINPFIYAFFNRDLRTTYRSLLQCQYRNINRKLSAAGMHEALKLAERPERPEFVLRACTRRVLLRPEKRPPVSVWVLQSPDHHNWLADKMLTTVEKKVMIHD
Method: (§1) Human cloned receptors or frontal cortex preparations of male Wistar rats weighing 120-200 g were used for the experiments. The protein contents of membrane preparations were determined according to the method of Lowry (1951).
(§2) In the course of 5-HT7 receptor binding studies the applied tissue was CHO cell culture, the ligand was ^3H-LSD, and for the non-specific binding clozapine (25 μM) was used as ligand. In the serotonin uptake experiment cortex was used as tissue. As ligand tritiated serotonin, as non-specifically binding ligand fluoxetine (100 μM) was applied.
(§3) IC50 is the concentration where the difference between whole binding and non-specific binding in the presence of 10 μM serotonin creatinine sulfate is 50%. The compounds with an IC50 value smaller than 100 nmol were considered effective in this test.

[2] = target: T2, 5-HT uptake (Rattus norvegicus, UniProt P31652); assay: Serotonin uptake experiment (tritiated serotonin, cortex); format: biochemical; details: cortex tissue; ligand tritiated serotonin; non-specific ligand fluoxetine (100 μM); read-out: Inhibition of 5-HT uptake, IC50
T2 construct: In the serotonin uptake experiment cortex was used as tissue; from tissue; host or cells: frontal cortex of male Wistar rats
T2 sequence (P31652 whole entry): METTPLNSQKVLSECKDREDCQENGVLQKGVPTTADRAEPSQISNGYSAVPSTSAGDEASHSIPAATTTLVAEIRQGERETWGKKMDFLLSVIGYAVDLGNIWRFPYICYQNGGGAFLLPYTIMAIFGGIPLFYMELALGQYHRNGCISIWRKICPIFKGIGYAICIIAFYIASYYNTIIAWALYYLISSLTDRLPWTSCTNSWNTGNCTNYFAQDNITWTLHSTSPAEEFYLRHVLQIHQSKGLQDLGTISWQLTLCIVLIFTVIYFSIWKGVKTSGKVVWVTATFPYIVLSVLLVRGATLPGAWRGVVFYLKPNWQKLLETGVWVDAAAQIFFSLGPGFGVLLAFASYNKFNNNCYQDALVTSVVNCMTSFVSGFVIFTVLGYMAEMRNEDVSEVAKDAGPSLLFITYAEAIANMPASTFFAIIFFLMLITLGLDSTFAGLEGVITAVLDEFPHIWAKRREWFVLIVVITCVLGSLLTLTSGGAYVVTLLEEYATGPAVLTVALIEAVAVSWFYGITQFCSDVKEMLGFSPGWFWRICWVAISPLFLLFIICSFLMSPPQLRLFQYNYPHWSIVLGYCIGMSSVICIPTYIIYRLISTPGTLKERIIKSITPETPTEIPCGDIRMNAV
Method: as §1, §2, §3

SMILES: O=C1Nc2ccccc2C1CCCCN1CC=C(c2ccccc2)CC1 (centres unmarked)
melting point: 121 to 126 °C

SMILES: O=C1Nc2ccc(F)cc2C1CCCCN1CCc2sccc2C1 (centres unmarked) (as salt: hydrochloride) [Example 7, 3-[4-(6,7-Dihydro-4H-thieno[3,2-c]pyridin-5-yl)-butyl]-5-fluoro-1,3-dihydro-2H-indol-2-one monohydrochloride]
melting point: 192 to 194 °C

SMILES: O=C1Nc2ccccc2C1CCCCN1CCc2sc(Cl)cc2C1 (centres unmarked) (as salt: hydrochloride) [Example 8, 3-[4-(2-Chloro-6,7-dihydro-4H-thieno[3,2-c]-pyridin-5-yl)-butyl]-1,3-dihydro-2H-indol-2-one monohydrochloride]
melting point: 103 to 106 °C

SMILES: O=C1Nc2cc(F)ccc2C1CCCCN1CC=C(c2cccc(C(F)(F)F)c2)CC1 (centres unmarked) (as salt: hydrochloride) [Example 12, 6-Fluoro-3-{4-[4-(3-trifluoromethyl-phenyl)-1,2,3,6-tetrahydropyridin-1-yl]-butyl}-1,3-dihydro-2H-indol-2-one monohydrochloride]
melting point: 203 to 205 °C

SMILES: O=C1Nc2ccc(F)cc2C1CCCCN1CC=C(c2cccc(C(F)(F)F)c2)CC1 (centres unmarked) (as salt: hydrochloride) [Example 14, 5-Fluoro-3-{4-[4-(3-trifluoromethyl-phenyl)-1,2,3,6-tetrahydropyridin-1-yl]-butyl}-1,3-dihydro-2H-indol-2-one monohydrochloride]
melting point: 201 to 204 °C

SMILES: O=C1Nc2ccccc2C1CCCCN1CC=C(c2cccc(C(F)(F)F)c2)CC1 (centres unmarked) (as salt: oxalate) [Example 5, 3-{4-[4-(3-Trifluoromethyl-phenyl)-1,2,3,6-tetrahydropyridin-1-yl]-butyl}-1,3-dihydro-2H-indol-2-one monooxalate]
melting point: 159 to 161 °C

SMILES: O=C1Nc2ccccc2C1CCCCN1CCc2sccc2C1 (centres unmarked) (as salt: oxalate) [Example 6, 3-[4-(6,7-Dihydro-4H-thieno[3,2-c]pyridin-5-yl)-butyl]-1,3-dihydro-2H-indol-2-one monooxalate]
melting point: 168 to 170 °C

SMILES: O=C1Nc2ccccc2C1CCCCN1CC=C(c2cccc(C(F)(F)F)c2)CC1 (centres unmarked) [Example 5, 3-{4-[4-(3-Trifluoromethyl-phenyl)-1,2,3,6-tetrahydropyridin-1-yl]-butyl}-1,3-dihydro-2H-indol-2-one monooxalate]
IC50 [1]: < 100 nM

SMILES: O=C1Nc2ccccc2C1CCCCN1CCc2sccc2C1 (centres unmarked) [Example 6, 3-[4-(6,7-Dihydro-4H-thieno[3,2-c]pyridin-5-yl)-butyl]-1,3-dihydro-2H-indol-2-one monooxalate]
IC50 [1]: < 100 nM

SMILES: O=C1Nc2ccc(F)cc2C1CCCCN1CCc2sccc2C1 (centres unmarked) [Example 7, 3-[4-(6,7-Dihydro-4H-thieno[3,2-c]pyridin-5-yl)-butyl]-5-fluoro-1,3-dihydro-2H-indol-2-one monohydrochloride]
IC50 [1]: < 100 nM

SMILES: O=C1Nc2cc(F)ccc2C1CCCCN1CC=C(c2cccc(C(F)(F)F)c2)CC1 (centres unmarked) [Example 12, 6-Fluoro-3-{4-[4-(3-trifluoromethyl-phenyl)-1,2,3,6-tetrahydropyridin-1-yl]-butyl}-1,3-dihydro-2H-indol-2-one monohydrochloride]
IC50 [1]: < 100 nM

SMILES: O=C1Nc2ccccc2C1CCCCN1CC=C(c2ccc(Cl)cc2)CC1 (centres unmarked) [Example 13, 3-{4-[4-(4-Chlorophenyl)-1,2,3,6-tetrahydro-pyridin-1-yl]-butyl}-1,3-dihydro-2H-indol-2-one]
IC50 [1]: < 100 nM | IC50 [2]: < 100 nM | melting point: 122 to 124 °C

SMILES: O=C1Nc2ccc(F)cc2C1CCCCN1CC=C(c2cccc(C(F)(F)F)c2)CC1 (centres unmarked) [Example 14, 5-Fluoro-3-{4-[4-(3-trifluoromethyl-phenyl)-1,2,3,6-tetrahydropyridin-1-yl]-butyl}-1,3-dihydro-2H-indol-2-one monohydrochloride]
IC50 [1]: < 100 nM | IC50 [2]: < 100 nM

Other lines, results leading:

melting point: 194 to 197 °C
SMILES: O=C1Nc2cc(F)ccc2C1CCCCN1CCc2sccc2C1 (centres unmarked) (as salt: hydrochloride) [Example 9, 3-[4-(6,7-Dihydro-4H-thieno[3,2-c]pyridin-5-yl)-butyl]-6-fluoro-1,3-dihydro-2H-indol-2-one mono-hydrochloride]

melting point: 214 to 216 °C
SMILES: O=C1Nc2cc(F)ccc2C1CCCCN1CCc2sc(Cl)cc2C1 (centres unmarked) (as salt: hydrochloride) [Example 10, 3-[4-(2-Chloro-6,7-dihydro-4H-thieno[3,2-c]-pyridin-5-yl)-butyl]-6-fluoro-1,3-dihydro-2H-indol-2-one monohydrochloride]

melting point: 161 to 163 °C
SMILES: O=C1Nc2ccc(F)cc2C1CCCCN1CCc2sc(Cl)cc2C1 (centres unmarked) (as salt: hydrochloride) [Example 11, 3-[4-(2-Chloro-6,7-dihydro-4H-thieno[3,2-c]-pyridin-5-yl)-butyl]-5-fluoro-1,3-dihydro-2H-indol-2-one monohydrochloride]

IC50 [1]: < 100 nM
SMILES: O=C1Nc2ccccc2C1CCCCN1CCc2sc(Cl)cc2C1 (centres unmarked) [Example 8, 3-[4-(2-Chloro-6,7-dihydro-4H-thieno[3,2-c]-pyridin-5-yl)-butyl]-1,3-dihydro-2H-indol-2-one monohydrochloride]

IC50 [1]: < 100 nM
SMILES: O=C1Nc2cc(F)ccc2C1CCCCN1CCc2sccc2C1 (centres unmarked) [Example 9, 3-[4-(6,7-Dihydro-4H-thieno[3,2-c]pyridin-5-yl)-butyl]-6-fluoro-1,3-dihydro-2H-indol-2-one mono-hydrochloride]

IC50 [1]: < 100 nM
SMILES: O=C1Nc2cc(F)ccc2C1CCCCN1CCc2sc(Cl)cc2C1 (centres unmarked) [Example 10, 3-[4-(2-Chloro-6,7-dihydro-4H-thieno[3,2-c]-pyridin-5-yl)-butyl]-6-fluoro-1,3-dihydro-2H-indol-2-one monohydrochloride]

IC50 [1]: < 100 nM
SMILES: O=C1Nc2ccc(F)cc2C1CCCCN1CCc2sc(Cl)cc2C1 (centres unmarked) [Example 11, 3-[4-(2-Chloro-6,7-dihydro-4H-thieno[3,2-c]-pyridin-5-yl)-butyl]-5-fluoro-1,3-dihydro-2H-indol-2-one monohydrochloride]
